target: PD-L1 His protein / PD-1 Fc protein (Homo sapiens, UniProt Q9NZQ7); experiment: HTRF Assay (PD-1/PD-L1 interaction); assay type: binding; conditions: PD-L1 His 6 nM, PD-1 Fc 6 nM
Summary of the method: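 Compounds tested from 20 μM down to 0.001 μM (3-fold) against 6 nM PD-L1 His and 6 nM PD-1 Fc, 15 min room temperature incubation. Detection after 1 h at room temperature with Tb cryptate anti-6HIS and XL665 anti-human IgG reagents (mixture at 0.35 nM and 6.7 nM), HTRF signal.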

PD-L1 His protein / PD-1 Fc protein, sequence (Q9NZQ7 19-238 limits assumed): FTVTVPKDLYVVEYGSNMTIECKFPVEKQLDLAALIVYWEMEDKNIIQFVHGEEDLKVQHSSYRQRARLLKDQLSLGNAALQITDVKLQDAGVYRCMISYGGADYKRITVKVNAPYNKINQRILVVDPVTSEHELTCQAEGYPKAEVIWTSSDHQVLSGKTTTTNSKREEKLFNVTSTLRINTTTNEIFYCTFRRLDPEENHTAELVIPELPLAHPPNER

Row | SMILES | IC50 [nM]
1 | COc1nc(-c2cccc(-c3cccc(-c4cc5c(=O)n(C)c(CNCCN6CCCC6=O)nn5c4)c3Cl)c2Cl)ccc1CNC[C@@H]1CCC(=O)N1 [Example 458, 6-[2-Chloro-3-[2-chloro-3-[6-methoxy-5-[[[(2S)-5-oxopyrrolidin-2-yl]methylamino]methyl]-2-pyridyl]phenyl]phenyl]-3-methyl-2-[[2-(2-oxopyrrolidin-1-yl)ethylamino]methyl]pyrrolo[2,1-f][1,2,4]triazin-4-one] | 240
2 | Cc1c(COc2cc(OCc3cncc(C#N)c3)c(CNCCO)cc2Cl)cccc1-c1cccc(-c2cnc3cc(CNCCO)ccn3c2=O)c1C [Example 17, 5-((4-Chloro-2-(((2-hydroxyethyl)amino)methyl)-5-((3′-(8-(((2-hydroxyethyl)amino)methyl)-4-oxo-4H-pyrido[1,2-a]pyrimidin-3-yl)-2,2′-dimethyl-[1,1′-biphenyl]-3-yl)methoxy)phenoxy)methyl)nicotinonitrile] | 2
3 | Cc1c(COc2cc(OCc3cncc(C#N)c3)c(CNCCO)cc2Cl)cccc1-c1cccc(-c2ccn3c(=O)c(CNCCO)cnc3c2)c1C#N [Example 25, 5-((4-Chloro-5-((2′-cyano-3′-(3-(((2-hydroxyethyl)amino)methyl)-4-oxo-4H-pyrido[1,2-a]pyrimidin-8-yl)-2-methyl-[1,1′-biphenyl]-3-yl)methoxy)-2-(((2-hydroxyethyl)amino)methyl)phenoxy)methyl)nicotinonitrile] | 0.3
4 | COC(=O)[C@H](CO)NCc1cnc2cc(-c3cccc(-c4cccc(-c5ccc(CNC[C@@H]6CCC(=O)N6)c(OC)n5)c4Cl)c3Cl)ccn2c1=O [Example 101, Methyl ((8-(2,2′-dichloro-3′-(6-methoxy-5-(((((S)-5-oxopyrrolidin-2-yl)methyl)amino)methyl)pyridin-2-yl)-[1,1′-biphenyl]-3-yl)-4-oxo-4H-pyrido[1,2-a]pyrimidin-3-yl)methyl)-L-serinate] | 2.1
5 | COc1nc(-c2cccc(-c3cccc(-c4ccc5c(n4)N(C)CCC5NC[C@@H]4CCC(=O)N4)c3Cl)c2Cl)cnc1CNC[C@@H]1CCC(=O)N1 (mixture of isomers) [Example 56, (5S)-5-(((7-(2,2′-Dichloro-3′-(6-methoxy-5-(((((S)-5-oxopyrrolidin-2-yl)methyl)amino)methyl)pyrazin-2-yl)-[1,1′-biphenyl]-3-yl)-1-methyl-1,2,3,4-tetrahydro-1,8-naphthyridin-4-yl)amino)methyl)pyrrolidin-2-one] | 0.7
6 | O=C1CC[C@@H](CNCc2ccc3nc(-c4cccc(-c5cccc(-c6cc(=O)n7cc(CNC[C@@H]8CCC(=O)N8)ccc7n6)c5Cl)c4Cl)cc(=O)n3c2)N1 [Example 60, 2,2′-(2,2′-Dichloro-[1,1′-biphenyl]-3,3′-diyl)bis(7-(((((S)-5-oxopyrrolidin-2-yl)methyl)amino)methyl)-4H-pyrido[1,2-a]pyrimidin-4-one)] | 460
7 | COc1nc(-c2cccc(-c3cccc(-c4ccn5c(=O)c(CNC[C@@H]6CCC(=O)N6)cnc5c4)c3Cl)c2Cl)ccc1CN1CC[C@@H](O)C1 [Example 170, 8-(2,2′-Dichloro-3′-(5-(((R)-3-hydroxypyrrolidin-1-yl)methyl)-6-methoxypyridin-2-yl)-[1,1′-biphenyl]-3-yl)-3-(((((S)-5-oxopyrrolidin-2-yl)methyl)amino)methyl)-4H-pyrido[1,2-a]pyrimidin-4-one] | 0.3
8 | Cc1c(-c2ccn3c(=O)c(CNC[C@@H]4CCC(=O)N4)cnc3c2)cccc1-c1cccc(-c2ccn3c(=O)c(CNC[C@@H]4CCC(=O)N4)cnc3c2)c1C [Example 37, 8,8′-(2,2′-Dimethyl-[1,1′-biphenyl]-3,3′-diyl)bis(3-(((((S)-5-oxopyrrolidin-2-yl)methyl)amino)methyl)-4H-pyrido[1,2-a]pyrimidin-4-one)] | 140
9 | COc1nc(-c2cccc(-c3cccc(-c4ccn5c(=O)c(C)c(CNC[C@H](C)O)nc5c4)c3Cl)c2Cl)ccc1CNC[C@@H]1CCC(=O)N1 [Example 377, 8-(2,2′-Dichloro-3′-(6-methoxy-5-(((((S)-5-oxopyrrolidin-2-yl)methyl)amino)methyl)pyridin-2-yl)-[1,1′-biphenyl]-3-yl)-2-((((S)-2-hydroxypropyl)amino)methyl)-3-methyl-4H-pyrido[1,2-a]pyrimidin-4-one] | 21
10 | COc1nc(-c2cccc(-c3cccc(-c4ccn5c(=O)c(CN6CC(CO)C6)cnc5c4)c3Cl)c2Cl)ccc1CN1CC[C@H](C(=O)O)C1 [Example 135, (S)-1-((6-(2,2′-Dichloro-3′-(3-((3-(hydroxymethyl)azetidin-1-yl)methyl)-4-oxo-4H-pyrido[1,2-a]pyrimidin-8-yl)-[1,1′-biphenyl]-3-yl)-2-methoxypyridin-3-yl)methyl)pyrrolidine-3-carboxylic acid] | 0.2
11 | COc1nc(-c2cccc(-c3cccc(-c4ccn5c(=O)c(CNCCN6CCNC6=O)cnc5c4)c3Cl)c2Cl)ccc1CNC[C@@H]1CCC(=O)N1 [Example 207, (S)-8-(2,2′-Dichloro-3′-(6-methoxy-5-((((5-oxopyrrolidin-2-yl)methyl)amino)methyl)pyridin-2-yl)-[1,1′-biphenyl]-3-yl)-3-(((2-(2-oxoimidazolidin-1-yl)ethyl)amino)methyl)-4H-pyrido[1,2-a]pyrimidin-4-one] | 0.3
12 | COc1nc(-c2cccc(-c3cccc(-c4ccn5c(=O)c(CNC[C@@H]6CCC(=O)N6)cnc5c4)c3Cl)c2C#N)ccc1CNC[C@@H]1CCC(=O)N1 [Example 145, 2′-Chloro-3-(6-methoxy-5-(((((S)-5-oxopyrrolidin-2-yl)methyl)amino)methyl)pyridin-2-yl)-3′-(4-oxo-3-(((((S)-5-oxopyrrolidin-2-yl)methyl)amino)methyl)-4H-pyrido[1,2-a]pyrimidin-8-yl)-[1,1′-biphenyl]-2-carbonitrile] | 2.2
13 | O=C1CC[C@@H](CNCc2nc3cc(-c4cccc(-c5cccc(-c6ccn7c(Cl)c(CNC[C@@H]8CCC(=O)N8)nc7c6)c5Cl)c4Cl)ccn3c2Cl)N1 [Example 430, (5S)-5-[[[3-Chloro-7-[2-chloro-3-[2-chloro-3-[3-chloro-2-[[[(2S)-5-oxopyrrolidin-2-yl]methylamino]methyl]imidazo[1,2-a]pyridin-7-yl]phenyl]phenyl]imidazo[1,2-a]pyridin-2-yl]methylamino]methyl]pyrrolidin-2-one] | 170
14 | COc1nc(-c2cccc(-c3cccc(-c4ccn5c(=O)c(CNC(C)(C)C(=O)O)cnc5c4)c3Cl)c2Cl)ccc1CNC[C@@H]1CCC(=O)N1 [Example 184, (S)-2-(((8-(2,2′-Dichloro-3′-(6-methoxy-5-((((5-oxopyrrolidin-2-yl)methyl)amino)methyl)pyridin-2-yl)-[1,1′-biphenyl]-3-yl)-4-oxo-4H-pyrido[1,2-a]pyrimidin-3-yl)methyl)amino)-2-methylpropanoic acid] | 0.1
15 | COc1cc(-c2cccc(-c3cccc(-c4ccc(CNC[C@@H]5CCC(=O)N5)c(OC)n4)c3Cl)c2Cl)cc2c1CN(CC(O)C(C)C)CC2 (stereo partly drawn) [Example 488, (5S)-5-((((6-(2,2′-Dichloro-3′-(2-(2-hydroxy-3-methylbutyl)-8-methoxy-1,2,3,4-tetrahydroisoquinolin-6-yl)-[1,1′-biphenyl]-3-yl)-2-methoxypyridin-3-yl)methyl)amino)methyl)pyrrolidin-2-one] | 0.2
16 | COc1nc(-c2cccc(-c3cccc(-c4ccc5nc(C(=O)NCCN)cn5n4)c3Cl)c2Cl)ccc1CNC[C@@H]1CCC(=O)N1 [Example 438, N-(2-Aminoethyl)-6-[2-chloro-3-[2-chloro-3-[6-methoxy-5-[[[(2S)-5-oxopyrrolidin-2-yl]methylamino]methyl]-2-pyridyl]phenyl]phenyl]imidazo[1,2-b]pyridazine-2-carboxamide] | 14
17 | COc1nc(NCCNC(C)=O)cnc1-c1cccc(-c2cccc(-c3ncc(NCCNC(C)=O)nc3OC)c2Cl)c1Cl [Example 39, N,N′-((((2,2′-Dichloro-[1,1′-biphenyl]-3,3′-diyl)bis(6-methoxypyrazine-5,2-diyl))bis(azanediyl))bis(ethane-2,1-diyl))diacetamide] | 1000
18 | COc1nc(-c2cccc(-c3cccc(-c4ccn5c(=O)c(CNC[C@H](C)N)cnc5c4)c3Cl)c2Cl)ccc1CNC[C@@H]1CCC(=O)N1 [Example 298, 3-[[[(2S)-2-Aminopropyl]amino]methyl]-8-[2-chloro-3-[2-chloro-3-[6-methoxy-5-[[[(2S)-5-oxopyrrolidin-2-yl]methylamino]methyl]-2-pyridyl]phenyl]phenyl]pyrido[1,2-a]pyrimidin-4-one] | 25
19 | COc1nc(-c2cccc(-c3cccc(-c4ccn5c(=O)c(CNCC6(O)CC6)cnc5c4)c3Cl)c2Cl)ccc1CNC[C@@H]1CCC(=O)N1 [Example 234, (S)-8-(2,2′-Dichloro-3′-(6-methoxy-5-((((5-oxopyrrolidin-2-yl)methyl)amino)methyl)pyridin-2-yl)-[1,1′-biphenyl]-3-yl)-3-((((1-hydroxycyclopropyl)methyl)amino)methyl)-4H-pyrido[1,2-a]pyrimidin-4-one] | 0.1
20 | Cc1c(COc2cc(OCc3cncc(C#N)c3)c(CN[C@@](C)(CO)C(=O)O)cc2Cl)cccc1-c1cccc(-c2ccn3c(=O)c(CN[C@@](C)(CO)C(=O)O)cnc3c2)c1C [Example 7, (S)-2-(((8-(3′-((4-((((S)-2-Carboxy-1-hydroxypropan-2-yl)amino)methyl)-2-chloro-5-((5-cyanopyridin-3-yl)methoxy)phenoxy)methyl)-2,2′-dimethyl-[1,1′-biphenyl]-3-yl)-4-oxo-4H-pyrido[1,2-a]pyrimidin-3-yl)methyl)amino)-3-hydroxy-2-methylpropanoic acid] | 0.2
21 | COc1nc(-c2cccc(-c3cccc(-c4cc5c(=O)n(C)c(CNCC(C)(C)F)nn5c4)c3Cl)c2Cl)ccc1CNC[C@@H]1CCC(=O)N1 [Example 462, (S)-6-(2,2′-Dichloro-3′-(6-methoxy-5-((((5-oxopyrrolidin-2-yl)methyl)amino)methyl)pyridin-2-yl)-[1,1′-biphenyl]-3-yl)-2-(((2-fluoro-2-methylpropyl)amino)methyl)-3-methylpyrrolo[2,1-f][1,2,4]triazin-4(3H)-one] | 58
